Source: publication PMC5362750, “Discovery of Potent, Selective, and Orally Bioavailable Small-Molecule Modulators of the Mediator Complex-Associated Kinases CDK8 and CDK19” (Journal of Medicinal Chemistry, 2016)

Tests used:
[1] = biological target: T1, FP (h) (Homo sapiens, UniProt P43088); assay: CEREP binding assay; details: agonist radioligand, read-out: % Inhibition of Control Specific Binding
T1 construct: purchased Millipore (KinaseProfiler) kinase panel

[2] = biological target: T2, ERBB4 (Homo sapiens, UniProt Q15303); assay: Kinase panel (Millipore); assay type: biochemical; details: 1 µM, ATP at Km
T2 construct: purchased Millipore (KinaseProfiler) kinase panel

[3] = biological target: FES (Homo sapiens, UniProt P07332); assay: Kinase panel (Millipore); assay type: biochemical; details: 1 µM, ATP at Km
[4] = biological target: PLK1 (Homo sapiens, UniProt P53350); assay: Kinase panel (Millipore); assay type: biochemical; details: 1 µM, ATP at Km
[5] = biological target: T3, MRCKALPHA (Homo sapiens, UniProt Q5VT25); assay: Kinase panel (Millipore); assay type: biochemical; details: 1 µM, ATP at Km
T3 construct: purchased Millipore (KinaseProfiler) kinase panel

[6] = biological target: T4, MC1 (Mus musculus, UniProt Q01727); assay: CEREP binding assay; details: agonist radioligand, read-out: % Inhibition of Control Specific Binding
T4 construct: purchased Millipore (KinaseProfiler) kinase panel

[7] = biological target: T5, PYK2 (Homo sapiens, UniProt Q14289); assay: Kinase panel (Millipore); assay type: biochemical; details: 1 µM, ATP at Km
T5 construct: purchased Millipore (KinaseProfiler) kinase panel

[8] = biological target: T6, ROS (Homo sapiens, UniProt P08922); assay: Kinase panel (Millipore); assay type: biochemical; details: 1 µM, ATP at Km
T6 construct: purchased Millipore (KinaseProfiler) kinase panel

[9] = biological target: CHK2(I157T) (Homo sapiens, UniProt O96017, I157T); details: 1 µM, ATP at Km
[10] = biological target: JNK3 (Homo sapiens, UniProt P53779); assay: Kinase panel (Millipore); assay type: biochemical; details: 1 µM, ATP at Km
[11] = system: kainate; details: 10 µM, agonist radioligand
[12] = biological target: T7, CLK3 (Homo sapiens, UniProt P49761); assay: Kinase panel (Millipore); assay type: biochemical; details: 1 µM, ATP at Km
T7 construct: purchased Millipore (KinaseProfiler) kinase panel

[13] = biological target: T8, TLK2 (Homo sapiens, UniProt Q86UE8); assay: Kinase panel (Millipore); assay type: biochemical; details: 1 µM, ATP at Km
T8 construct: purchased Millipore (KinaseProfiler) kinase panel

[14] = biological target: SAPK2B (Homo sapiens, UniProt Q15759); assay: Kinase panel (Millipore); assay type: biochemical; details: 1 µM, ATP at Km
[15] = biological target: T9, FLT3 (Homo sapiens, UniProt P36888); assay: Kinase panel (Millipore); assay type: biochemical; details: 1 µM, ATP at Km
T9 construct: purchased Millipore (KinaseProfiler) kinase panel

[16] = biological target: T10, CRF1 (h) (Homo sapiens, UniProt P34998); assay: CEREP binding assay; details: agonist radioligand, read-out: % Inhibition of Control Specific Binding
T10 construct: purchased Millipore (KinaseProfiler) kinase panel

[17] = biological target: NEK7 (Homo sapiens, UniProt Q8TDX7); assay: Kinase panel (Millipore); assay type: biochemical; details: 1 µM, ATP at Km
[18] = biological target: T11, PKCIOTA (Homo sapiens, UniProt P41743); assay: Kinase panel (Millipore); assay type: biochemical; details: 1 µM, ATP at Km
T11 construct: purchased Millipore (KinaseProfiler) kinase panel

[19] = biological target: T12, SGK (Homo sapiens, UniProt O00141); assay: Kinase panel (Millipore); assay type: biochemical; details: 1 µM, ATP at Km
T12 construct: purchased Millipore (KinaseProfiler) kinase panel

[20] = biological target: T13, NEK3 (Homo sapiens, UniProt P51956); assay: Kinase panel (Millipore); assay type: biochemical; details: 1 µM, ATP at Km
T13 construct: purchased Millipore (KinaseProfiler) kinase panel

[21] = female, Beagle, dog, in vivo
[22] = biological target: CKIT(D816H) (Homo sapiens, UniProt P10721, D816H); details: 1 µM, ATP at Km
[23] = biological target: T14, MSK2 (Homo sapiens, UniProt O75676); assay: Kinase panel (Millipore); assay type: biochemical; details: 1 µM, ATP at Km
T14 construct: purchased Millipore (KinaseProfiler) kinase panel

[24] = biological target: T15, ALK4 (Homo sapiens, UniProt P36896); assay: Kinase panel (Millipore); assay type: biochemical; details: 1 µM, ATP at Km
T15 construct: purchased Millipore (KinaseProfiler) kinase panel

[25] = biological target: TIE2(Y897S) (Homo sapiens, UniProt Q02763, Y897S); details: 1 µM, ATP at Km
[26] = biological target: ABL (Q252H) (Homo sapiens, UniProt P00519, Q252H); details: 1 µM, ATP at Km
[27] = biological target: SRC(1-530) (Homo sapiens, UniProt P12931); assay: Kinase panel (Millipore); assay type: biochemical; details: 1 µM, ATP at Km
[28] = biological target: T16, MAPKAP-K3 (Homo sapiens, UniProt Q16644); assay: Kinase panel (Millipore); assay type: biochemical; details: 1 µM, ATP at Km
T16 construct: purchased Millipore (KinaseProfiler) kinase panel

[29] = biological target: T17, EPHA7 (Homo sapiens, UniProt Q15375); assay: Kinase panel (Millipore); assay type: biochemical; details: 1 µM, ATP at Km
T17 construct: purchased Millipore (KinaseProfiler) kinase panel

[30] = biological target: T18, PKD2 (Homo sapiens, UniProt Q9BZL6); assay: Kinase panel (Millipore); assay type: biochemical; details: 1 µM, ATP at Km
T18 construct: purchased Millipore (KinaseProfiler) kinase panel

[31] = biological target: T19, PDGFRBETA (Homo sapiens, UniProt P09619); assay: Kinase panel (Millipore); assay type: biochemical; details: 1 µM, ATP at Km
T19 construct: purchased Millipore (KinaseProfiler) kinase panel

[32] = biological target: SAPK2A(T106M) (Homo sapiens, UniProt Q16539, T106M); details: 1 µM, ATP at Km
[33] = biological target: DMPK (Homo sapiens, UniProt Q09013); assay: Kinase panel (Millipore); assay type: biochemical; details: 1 µM, ATP at Km
[34] = biological target: T20, EPHA3 (Homo sapiens, UniProt P29320); assay: Kinase panel (Millipore); assay type: biochemical; details: 1 µM, ATP at Km
T20 construct: purchased Millipore (KinaseProfiler) kinase panel

[35] = biological target: T21, TIE2 (Homo sapiens, UniProt Q02763); assay: Kinase panel (Millipore); assay type: biochemical; details: 1 µM, ATP at Km
T21 construct: purchased Millipore (KinaseProfiler) kinase panel

[36] = system: Ca2+ channel (L, dihydropyridine site); details: 10 µM, antagonist radioligand
[37] = biological target: BLK (Homo sapiens, UniProt P51451); assay: Kinase panel (Millipore); assay type: biochemical; details: 1 µM, ATP at Km
[38] = biological target: CDK5/P25 (Homo sapiens, UniProt Q00535); details: 1 µM, ATP at Km
[39] = biological target: T22, TAO2 (Homo sapiens, UniProt Q9UL54); assay: Kinase panel (Millipore); assay type: biochemical; details: 1 µM, ATP at Km
T22 construct: purchased Millipore (KinaseProfiler) kinase panel

[40] = biological target: FMS(Y969C) (Homo sapiens, UniProt P07333, Y969C); details: 1 µM, ATP at Km
[41] = biological target: PAK5 (Homo sapiens, UniProt Q9P286); assay: Kinase panel (Millipore); assay type: biochemical; details: 1 µM, ATP at Km
[42] = system: AMPA; details: 10 µM, agonist radioligand
[43] = biological target: PI3 KINASE (H1047R/P85A) (Homo sapiens, UniProt P42336, H1047R); details: 1 µM, ATP at Km
[44] = biological target: T23, TXK (Homo sapiens, UniProt P42681); assay: Kinase panel (Millipore); assay type: biochemical; details: 1 µM, ATP at Km
T23 construct: purchased Millipore (KinaseProfiler) kinase panel
T23 sequence (P42681 whole entry): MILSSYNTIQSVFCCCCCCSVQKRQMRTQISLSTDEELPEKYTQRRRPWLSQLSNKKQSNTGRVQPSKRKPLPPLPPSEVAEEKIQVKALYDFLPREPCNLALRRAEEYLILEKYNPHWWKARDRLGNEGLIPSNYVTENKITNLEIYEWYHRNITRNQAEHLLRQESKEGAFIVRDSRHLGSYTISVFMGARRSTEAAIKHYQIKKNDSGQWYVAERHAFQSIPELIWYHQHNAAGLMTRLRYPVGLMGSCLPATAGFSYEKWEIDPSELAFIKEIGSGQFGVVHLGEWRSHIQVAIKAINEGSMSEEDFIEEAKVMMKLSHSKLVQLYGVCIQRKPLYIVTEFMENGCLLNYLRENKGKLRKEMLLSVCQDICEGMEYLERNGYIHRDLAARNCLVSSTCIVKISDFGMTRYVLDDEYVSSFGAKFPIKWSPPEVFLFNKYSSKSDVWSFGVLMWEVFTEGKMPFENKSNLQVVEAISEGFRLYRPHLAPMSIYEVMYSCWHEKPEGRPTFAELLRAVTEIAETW

Chain of BLK (P51451 whole entry): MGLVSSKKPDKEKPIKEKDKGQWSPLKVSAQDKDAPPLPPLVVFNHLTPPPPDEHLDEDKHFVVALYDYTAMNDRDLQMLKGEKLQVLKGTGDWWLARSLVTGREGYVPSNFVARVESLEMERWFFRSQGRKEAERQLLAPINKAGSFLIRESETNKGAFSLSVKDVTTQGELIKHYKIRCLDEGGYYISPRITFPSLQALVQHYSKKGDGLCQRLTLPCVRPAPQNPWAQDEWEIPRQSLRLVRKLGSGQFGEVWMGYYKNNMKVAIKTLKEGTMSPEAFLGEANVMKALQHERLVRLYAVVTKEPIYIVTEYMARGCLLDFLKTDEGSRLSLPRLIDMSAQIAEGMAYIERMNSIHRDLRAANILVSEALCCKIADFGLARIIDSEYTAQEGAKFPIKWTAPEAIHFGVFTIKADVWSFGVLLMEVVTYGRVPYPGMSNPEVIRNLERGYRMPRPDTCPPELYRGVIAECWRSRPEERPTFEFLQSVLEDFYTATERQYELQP
Chain of NEK7 (Q8TDX7 whole entry): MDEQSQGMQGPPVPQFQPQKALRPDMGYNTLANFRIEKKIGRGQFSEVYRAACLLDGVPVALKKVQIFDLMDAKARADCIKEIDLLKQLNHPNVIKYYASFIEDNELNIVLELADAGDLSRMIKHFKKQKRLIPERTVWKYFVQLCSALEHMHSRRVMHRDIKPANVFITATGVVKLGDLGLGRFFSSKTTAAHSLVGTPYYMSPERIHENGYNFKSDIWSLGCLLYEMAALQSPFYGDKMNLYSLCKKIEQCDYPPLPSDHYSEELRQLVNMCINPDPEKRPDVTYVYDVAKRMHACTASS
T3 sequence (Q5VT25 whole entry): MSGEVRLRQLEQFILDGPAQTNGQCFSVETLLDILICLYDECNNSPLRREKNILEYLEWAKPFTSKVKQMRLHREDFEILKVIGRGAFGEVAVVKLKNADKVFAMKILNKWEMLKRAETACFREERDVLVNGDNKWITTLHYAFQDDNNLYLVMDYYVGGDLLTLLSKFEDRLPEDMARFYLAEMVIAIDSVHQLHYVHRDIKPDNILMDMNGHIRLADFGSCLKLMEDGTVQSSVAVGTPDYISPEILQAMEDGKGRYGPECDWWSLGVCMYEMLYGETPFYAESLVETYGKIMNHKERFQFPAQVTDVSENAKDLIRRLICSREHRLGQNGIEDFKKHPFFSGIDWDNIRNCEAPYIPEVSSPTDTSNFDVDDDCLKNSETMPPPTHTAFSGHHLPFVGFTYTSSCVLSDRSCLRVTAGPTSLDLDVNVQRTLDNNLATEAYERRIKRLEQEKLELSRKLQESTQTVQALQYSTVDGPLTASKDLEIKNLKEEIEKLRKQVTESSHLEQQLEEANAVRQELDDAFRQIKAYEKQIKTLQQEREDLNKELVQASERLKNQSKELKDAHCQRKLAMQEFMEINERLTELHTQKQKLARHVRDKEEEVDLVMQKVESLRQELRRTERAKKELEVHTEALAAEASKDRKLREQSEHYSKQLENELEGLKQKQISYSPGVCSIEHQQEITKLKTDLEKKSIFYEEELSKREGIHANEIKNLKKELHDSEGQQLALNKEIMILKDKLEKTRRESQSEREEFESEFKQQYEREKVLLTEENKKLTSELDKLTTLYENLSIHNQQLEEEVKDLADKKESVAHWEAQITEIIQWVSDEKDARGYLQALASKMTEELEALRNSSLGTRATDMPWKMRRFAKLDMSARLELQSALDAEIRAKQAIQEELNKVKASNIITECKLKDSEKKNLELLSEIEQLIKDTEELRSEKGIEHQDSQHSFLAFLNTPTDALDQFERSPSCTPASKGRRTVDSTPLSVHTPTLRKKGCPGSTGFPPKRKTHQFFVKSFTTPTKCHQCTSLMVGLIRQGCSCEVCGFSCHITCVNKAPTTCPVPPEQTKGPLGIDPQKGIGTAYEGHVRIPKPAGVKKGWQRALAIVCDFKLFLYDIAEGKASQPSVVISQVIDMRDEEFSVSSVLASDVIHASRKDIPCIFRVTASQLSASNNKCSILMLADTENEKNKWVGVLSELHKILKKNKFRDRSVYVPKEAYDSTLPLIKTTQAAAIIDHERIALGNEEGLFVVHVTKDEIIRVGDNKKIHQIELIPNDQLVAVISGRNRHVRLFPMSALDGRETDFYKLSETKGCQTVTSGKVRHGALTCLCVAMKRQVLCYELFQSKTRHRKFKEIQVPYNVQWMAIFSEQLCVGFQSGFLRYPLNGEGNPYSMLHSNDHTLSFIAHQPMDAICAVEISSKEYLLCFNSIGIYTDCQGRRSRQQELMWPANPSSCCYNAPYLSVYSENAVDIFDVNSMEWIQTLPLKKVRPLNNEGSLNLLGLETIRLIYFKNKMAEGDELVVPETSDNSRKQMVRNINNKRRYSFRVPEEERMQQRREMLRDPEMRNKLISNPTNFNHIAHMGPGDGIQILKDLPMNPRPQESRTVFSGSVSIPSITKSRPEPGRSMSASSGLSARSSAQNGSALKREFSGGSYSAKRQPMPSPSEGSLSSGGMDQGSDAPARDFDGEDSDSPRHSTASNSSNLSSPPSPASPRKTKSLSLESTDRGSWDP
Chain of PLK1 (P53350 whole entry): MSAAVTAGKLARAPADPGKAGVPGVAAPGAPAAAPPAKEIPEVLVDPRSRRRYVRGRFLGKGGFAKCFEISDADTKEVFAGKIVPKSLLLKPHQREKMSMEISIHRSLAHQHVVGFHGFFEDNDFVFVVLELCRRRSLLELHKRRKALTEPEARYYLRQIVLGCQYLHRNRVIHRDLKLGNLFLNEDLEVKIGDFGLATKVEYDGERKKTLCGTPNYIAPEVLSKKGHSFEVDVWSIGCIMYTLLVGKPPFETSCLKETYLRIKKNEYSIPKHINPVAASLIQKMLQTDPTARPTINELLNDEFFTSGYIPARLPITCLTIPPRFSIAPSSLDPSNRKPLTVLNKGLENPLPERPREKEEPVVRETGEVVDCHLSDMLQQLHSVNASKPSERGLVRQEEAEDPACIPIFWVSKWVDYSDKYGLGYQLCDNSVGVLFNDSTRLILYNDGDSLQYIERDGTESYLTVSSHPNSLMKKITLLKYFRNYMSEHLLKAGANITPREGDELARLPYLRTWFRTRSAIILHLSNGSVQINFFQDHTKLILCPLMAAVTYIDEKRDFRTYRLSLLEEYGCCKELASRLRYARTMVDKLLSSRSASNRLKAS
T11 sequence (P41743 whole entry): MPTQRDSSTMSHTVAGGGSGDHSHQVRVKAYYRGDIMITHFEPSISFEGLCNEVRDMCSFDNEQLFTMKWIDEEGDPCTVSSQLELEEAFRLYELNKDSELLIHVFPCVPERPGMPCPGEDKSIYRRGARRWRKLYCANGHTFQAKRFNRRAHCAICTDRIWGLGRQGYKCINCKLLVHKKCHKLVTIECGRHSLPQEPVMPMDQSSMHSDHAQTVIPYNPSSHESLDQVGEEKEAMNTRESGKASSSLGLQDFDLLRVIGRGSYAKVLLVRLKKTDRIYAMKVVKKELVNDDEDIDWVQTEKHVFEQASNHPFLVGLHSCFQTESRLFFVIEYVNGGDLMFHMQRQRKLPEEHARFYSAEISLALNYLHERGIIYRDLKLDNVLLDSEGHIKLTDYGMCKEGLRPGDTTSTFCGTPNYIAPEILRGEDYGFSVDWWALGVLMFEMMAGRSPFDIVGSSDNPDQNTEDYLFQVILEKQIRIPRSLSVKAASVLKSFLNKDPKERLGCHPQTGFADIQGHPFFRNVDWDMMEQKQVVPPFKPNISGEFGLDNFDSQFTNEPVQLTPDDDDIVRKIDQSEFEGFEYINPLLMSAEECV
Chain of JNK3 (P53779 whole entry): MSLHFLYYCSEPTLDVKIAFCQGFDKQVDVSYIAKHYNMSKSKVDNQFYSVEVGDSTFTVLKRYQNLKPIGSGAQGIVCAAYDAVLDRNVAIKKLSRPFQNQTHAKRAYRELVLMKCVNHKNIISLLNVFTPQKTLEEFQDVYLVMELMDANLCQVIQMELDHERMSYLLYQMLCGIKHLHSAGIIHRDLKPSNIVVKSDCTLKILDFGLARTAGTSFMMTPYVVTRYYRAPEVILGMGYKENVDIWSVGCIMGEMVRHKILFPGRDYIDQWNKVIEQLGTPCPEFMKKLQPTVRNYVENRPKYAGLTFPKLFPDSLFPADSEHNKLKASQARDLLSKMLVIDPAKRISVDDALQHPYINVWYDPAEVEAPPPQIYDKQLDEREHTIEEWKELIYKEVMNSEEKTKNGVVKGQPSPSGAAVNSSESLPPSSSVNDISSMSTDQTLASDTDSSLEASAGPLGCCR
T4 sequence (Q01727 whole entry): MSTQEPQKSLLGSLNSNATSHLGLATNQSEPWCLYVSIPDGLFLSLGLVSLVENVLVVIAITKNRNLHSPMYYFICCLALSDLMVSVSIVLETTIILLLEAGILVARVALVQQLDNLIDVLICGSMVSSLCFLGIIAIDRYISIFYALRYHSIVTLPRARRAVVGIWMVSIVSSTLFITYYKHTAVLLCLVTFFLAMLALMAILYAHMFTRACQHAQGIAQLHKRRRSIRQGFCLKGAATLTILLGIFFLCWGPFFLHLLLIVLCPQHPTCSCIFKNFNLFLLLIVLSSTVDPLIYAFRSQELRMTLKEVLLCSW

With `Cn1ncc2cc(-c3cnc(N)c(Cl)c3N3CCC4(CCNC4=O)CC3)ccc21` [Compound 109, 8-(2-Amino-3-chloro-5-(1-methyl-1H-indazol-5-yl)pyridin-4-yl)-2,8-diazaspiro[4.5]decan-1-one] the inhibition at 10 µM [1] was -1%, the “% effect” value [2] was -28% and the “% effect” value [3] was -6%. The “% effect” value [4] was -3%, the “% effect” value [5] was -3% and the inhibition at 10 µM [6] was -8%. The “% effect” value [7] was -2%, the “% effect” value [8] was 8% and the “% effect” value [9] was -5%. For the same compound, the “% effect” value [10] was -5%, the “% Inhibition of Control Specific Binding” value [11] was 9% and the “% effect” value [12] was 4%. The “% effect” value [13] was -5%, the “% effect” value [14] was -3% and the “% effect” value [15] was 7%. For the same compound, the inhibition at 10 µM [16] was -7%, the “% effect” value [17] was 15% and the “% effect” value [18] was -5%. For the same compound, the “% effect” value [19] was 0%, the “% effect” value [20] was -11% and the LBF [21] was 43%. The “% effect” value [22] was 1%, the “% effect” value [23] was 5% and the “% effect” value [24] was 2%. The “% effect” value [25] was 0%, the “% effect” value [26] was -10% and the “% effect” value [27] was 0%. For the same compound, the “% effect” value [28] was 5%, the “% effect” value [29] was 13% and the “% effect” value [30] was -1%. For the same compound, the “% effect” value [31] was -9%, the “% effect” value [32] was 2% and the “% effect” value [33] was 4%. For the same compound, the “% effect” value [34] was 5%, the “% effect” value [35] was 14% and the “% Inhibition of Control Specific Binding” value [36] was -16%. The “% effect” value [37] was 11%, the “% effect” value [38] was 13% and the “% effect” value [39] was 2%. For the same compound, the “% effect” value [40] was -43%, the “% effect” value [41] was -11% and the “% Inhibition of Control Specific Binding” value [42] was 3%. For the same compound, the “% effect” value [43] was 7% and the “% effect” value [44] was -5%.
